In ChEMBL document CHEMBL3867469, “Discovery of phenoxyindazoles and phenylthioindazoles as RORγ inverse agonists” (Bioorg Med Chem Lett, 2016):

Key:
[1] = target: T1, Nuclear receptor ROR-gamma (Homo sapiens, UniProt P51449)
T1 sequence (P51449 whole entry): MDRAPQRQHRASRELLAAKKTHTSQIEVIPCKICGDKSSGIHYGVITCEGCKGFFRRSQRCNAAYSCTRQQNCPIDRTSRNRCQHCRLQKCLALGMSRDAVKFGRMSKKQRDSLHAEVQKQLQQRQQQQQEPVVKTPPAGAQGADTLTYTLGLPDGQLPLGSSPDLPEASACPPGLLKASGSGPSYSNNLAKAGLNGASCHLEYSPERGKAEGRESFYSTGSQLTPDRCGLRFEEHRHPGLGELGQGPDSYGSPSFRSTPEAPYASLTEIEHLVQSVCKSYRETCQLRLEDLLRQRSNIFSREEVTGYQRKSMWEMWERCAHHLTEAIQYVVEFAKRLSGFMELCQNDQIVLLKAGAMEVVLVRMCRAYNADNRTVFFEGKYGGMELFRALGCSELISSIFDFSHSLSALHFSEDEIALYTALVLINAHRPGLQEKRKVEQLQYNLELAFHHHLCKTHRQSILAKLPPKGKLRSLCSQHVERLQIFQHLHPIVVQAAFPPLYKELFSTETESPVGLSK
Description: Inverse agonist activity at GAL4 DBD-fused RORgammat LBD (unknown origin) expressed in HG5LN cells after 18 hrs by luciferase reporter gene assay

[2] = target: T2, Retinoic acid receptor gamma (Homo sapiens, UniProt P13631)
T2 sequence (P13631 whole entry): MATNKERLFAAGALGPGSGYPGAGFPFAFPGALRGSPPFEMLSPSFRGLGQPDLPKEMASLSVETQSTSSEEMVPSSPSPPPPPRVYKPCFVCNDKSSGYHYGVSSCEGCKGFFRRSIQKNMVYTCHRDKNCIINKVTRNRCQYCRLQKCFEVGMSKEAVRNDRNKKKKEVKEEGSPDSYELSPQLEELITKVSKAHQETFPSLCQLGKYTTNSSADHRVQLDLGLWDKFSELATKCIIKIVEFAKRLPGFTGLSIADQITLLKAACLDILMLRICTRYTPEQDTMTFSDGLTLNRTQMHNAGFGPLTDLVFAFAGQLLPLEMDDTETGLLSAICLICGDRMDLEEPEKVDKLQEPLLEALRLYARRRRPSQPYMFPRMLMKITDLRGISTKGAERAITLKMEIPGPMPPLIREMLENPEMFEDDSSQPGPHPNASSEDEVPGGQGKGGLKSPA
Description: Inverse agonist activity at GAL4 DBD-fused RARgamma LBD (unknown origin) expressed in human HG5LN cells after 18 hrs by luciferase reporter gene assay

in vitro [3] = conditions: human, neonatal keratinocytes
Description: Photocytotoxicity against human neonatal keratinocytes assessed as decrease in cell viability by measuring ratio of IC50 in presence of UV to IC50 in absence of UV after 30 mins by neutral red dye based assay

in vitro [4] = conditions: human, plasma
Description: Fraction unbound in human plasma at 5 uM after 4 hrs by equilibrium dialysis based LC-MS/MS analysis

[5] = target: T1, Nuclear receptor ROR-gamma; test: Inverse agonist activity at RORgamma in human CD4+ T cells assessed as inhibition of IL-17A release after 4 days by HTRF assay; format: cell-based, T-cell
[6] = rat, microsomes
Description: Stability in rat microsomes

[7] = target: T3, Nuclear receptor ROR-alpha (Homo sapiens, UniProt P35398)
T3 sequence (P35398 whole entry): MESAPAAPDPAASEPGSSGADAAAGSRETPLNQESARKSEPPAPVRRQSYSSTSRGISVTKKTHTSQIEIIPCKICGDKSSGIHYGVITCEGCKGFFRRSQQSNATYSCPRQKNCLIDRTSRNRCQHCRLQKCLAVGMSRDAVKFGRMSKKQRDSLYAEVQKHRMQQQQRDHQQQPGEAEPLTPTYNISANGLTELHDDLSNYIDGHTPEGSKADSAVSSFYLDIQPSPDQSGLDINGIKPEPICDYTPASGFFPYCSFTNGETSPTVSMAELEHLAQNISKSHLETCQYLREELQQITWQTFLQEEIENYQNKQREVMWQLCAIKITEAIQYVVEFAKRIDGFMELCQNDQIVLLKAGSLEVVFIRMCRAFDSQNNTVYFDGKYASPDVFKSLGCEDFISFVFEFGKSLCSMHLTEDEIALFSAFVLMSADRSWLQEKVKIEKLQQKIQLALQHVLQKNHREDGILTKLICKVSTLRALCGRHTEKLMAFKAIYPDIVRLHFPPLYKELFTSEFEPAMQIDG
Description: Inverse agonist activity at GAL4 DBD-fused RORalpha LBD (unknown origin) expressed in HG5LN cells after 18 hrs by luciferase reporter gene assay

in vitro [8] = conditions: human, hepatocytes
physchem = conditions: buffer, pH 6.5
[9] = Photocytotoxicity against human neonatal keratinocytes assessed as decrease in cell viability preincubated for 30 mins followed by 5 J/cm2 UV light irradiation for 15 mins measured after 24 hrs by neutral red dye based assay; format: toxicity; conditions: neonatal keratinocyte

SMILES	IC50 [1]	IC50 [2]	selectivity ratio at 0.5 h (in vitro [3])	fraction unbound at 4 h, 5 µM (in vitro [4])	IC50 [5]	Stability [6]	IC50 [7]	hepatocyte CLint at […], 1 µM (in vitro [8])	logD (physchem)	Activity [9]
Cc1cccc(Cl)c1Oc1nn(-c2ccc(C(=O)O)cc2)c2ccc(C(=O)N(C)C)cc12	0.12 µM	> 10 µM	36	0.024	0.15 µM	Unstable	> 10 µM	54 µL/min/1e6 cells	1.5	–
Cc1cccc(C)c1Sc1nn(-c2ccc(C(=O)O)cc2)c2ccc(C(=O)N(C)C)cc12	0.37 µM	> 10 µM	–	–	–	–	–	–	1.6	Toxic
CN(C)C(=O)c1ccc2c(c1)c(Sc1cccc(Cl)c1Cl)nn2-c1ccc(C(=O)O)cc1	5.9 µM	> 10 µM	–	–	–	–	–	–	2.1	Toxic
CN(C)C(=O)c1ccc2c(c1)c(Sc1c(F)cccc1Cl)nn2-c1ccc(C(=O)O)cc1	5 µM	> 10 µM	–	–	–	–	–	–	1.4	Toxic
CN(C)C(=O)c1ccc2c(c1)c(Sc1ccc(Cl)cc1Cl)nn2-c1ccc(C(=O)O)cc1	> 10 µM	> 10 µM	–	–	–	–	–	–	2.2	Toxic
